In paper PMC7663979, “Design of Novel 4-Aminobenzofuroxans and Evaluation of Their Antimicrobial and Anticancer Activity” (International Journal of Molecular Sciences, 2020):
Values joined by “and” are separate entries in the source; they are usually repeats but may differ in a detail not shown here. Identical values can stand only once.

What was measured:
[1] = tested on: PANC-1; test: Cytotoxicity assay (Cytell Cell Viability BioApp), PANC-1; assay type: cell-based, human; conditions: for IC50: Homo sapiens, PANC-1, mean ± SD, three experiments; for SI PANC-1: selectivity index = IC50 normal cells (Chang liver) / IC50 cancer cells, n.s. = no selectivity
[2] = tested on: T98G; test: cells; assay type: cell-based, human; conditions: for IC50: Homo sapiens, T98G, read-out: IC50 T98G; for SI T98G: selectivity index = IC50 normal cells (Chang liver) / IC50 cancer cells, n.s. = no selectivity
[3] = tested on: Microdochium nivale isolate 1; test: Fungistatic activity, agar growth medium poison technique, isolate 1; assay type: cell-based; conditions: 1 mM in PSA; for inhibition at 1000 µM: Microdochium nivale; for inhibition at 1000 µM / growth inhibition: 20 °C
Procedure: (§1) Fungistatic activity of the tested compounds was assessed in vitro using agar growth medium poison technique. The target compounds as well as widely used fungicides benzimidazole and carbendazim were dissolved to 10 mM concentration in 20% Tween 20. The obtained solutions were added 1:9 v/v (giving 1 mM-concentrations of the target compounds) to potato-sucrose agar (PSA) at 60 °C, mixed thoroughly and transferred to Petri dishes. For the control variants, PSA was supplemented with 20% Tween 20 (9:1). Fungistatic effect was tested against two isolates of Microdochium nivale causing snow mold disease of winter cereals (rye) from the culture collection of FRC Kazan Scientific Center of RAS. […] The center of each solidified medium was inoculated upside-down with 5-mm diameter mycelial plug cut from the periphery of 10-day-old cultures. The tested dishes were incubated at 20 °C. The percentage growth inhibition was calculated using Abbott’s formula (1):%Inhibition = [(A − B) ÷ A] × 100(1) where ‘A’ is mycelia growth in the control conditions and ‘B’ is mycelia growth in the treatment conditions. The assay was performed at least in triplicate. Linear growth of each colony was determined during 6 days.

[4] = tested on: Microdochium nivale isolate 21; test: Fungistatic activity, agar growth medium poison technique, isolate 21; assay type: cell-based; conditions: 1 mM in PSA; for inhibition at 1000 µM: Microdochium nivale
Procedure: as §1

[5] = tested on: MCF7; test: Cytotoxicity assay (Cytell Cell Viability BioApp), MCF7; assay type: cell-based, human; conditions: for IC50: Homo sapiens, MCF7, mean ± SD, three experiments; for SI MCF7: selectivity index = IC50 normal cells (Chang liver) / IC50 cancer cells, n.s. = no selectivity
[6] = tested on: Chang Liver; test: Cytotoxicity assay (Cytell Cell Viability BioApp), normal Chang liver cells; assay type: cell-based; conditions: Homo sapiens, mean ± SD, three experiments, read-out: IC50 Chang Liver (normal cell line)
[7] = tested on: M-HeLa; test: Cytotoxicity assay (Cytell Cell Viability BioApp), M-HeLa; assay type: cell-based, human; conditions: for IC50: Homo sapiens, M-HeLa, mean ± SD, three experiments; for SI M-HeLa: selectivity index = IC50 normal cells (Chang liver) / IC50 cancer cells, n.s. = no selectivity
[8] = tested on: M-HeLa cells; test: Cell apoptosis analysis by flow cytometry (annexin V-Alexa Fluor 647 / propidium iodide); assay type: cell-based, human; conditions: 24 h
Procedure: (§2) Cell Culture. M-HeLa cells at 10^6 cells/ well in a final volume of 2 mL were seeded into 6-well plates. After 24 h of incubation, various concentrations of compounds 3c and 3f were added to wells.
Cell Apoptosis Analysis. The cells were harvested at 2000 rpm for 5 min and, then, washed twice with ice-cold PBS, followed by resuspension in binding buffer 100 μL. Next, the samples were incubated with 0.35 μL of annexin V-Alexa Fluor 647 and 0.1 μL of propidium iodide for 40 min at room temperature in the dark. Finally, the cells were analyzed by flow cytometry (Guava easyCyte, MERCK, Kenilworth, NJ, USA). The experiments were repeated three times.

[9] = tested on: M-HeLa cells; test: Cell cycle analysis, propidium iodide, flow cytometry; assay type: cell-based, human; conditions: 24 h, control cells 34.28%
Procedure: as §2
The DNA content and cell-cycle distribution after […] were estimated by flow cytometry. Cell seeding, drug treatment and ethanol fixation were similar to cell proliferation assay. After washing with PBS, […] were suspended in 150 μL of PBS, then 0.5 mL phosphate-citrate buffer (0.05 M, pH = 4.0) was added and the suspension was incubated at room temperature for 5 min to facilitate the extraction of low molecular weight DNA. Following centrifugation the cells were resuspended in 150 μL DNA staining solution (20 μg/mL propidium iodide, 200 μg/mL […], and 0.1% Triton X-100) and incubated in the CO2 incubator (37 °C for 30 min). Cell cycle distribution was determined by fluorescence-activated cell sorting analysis of propidium iodide-stained ethanol-fixed cells using a Guava EasyCyte (Guava easyCyte, MERCK, Kenilworth, NJ, USA).

Row | Compound | IC50 [1] [µM] | SI PANC-1 [1] | IC50 [2] [µM] | SI T98G [2] | IC50 [5] [µM] | SI MCF7 [5] | IC50 [6] [µM] | IC50 [7] [µM] | SI M-HeLa [7] | further results
1 | CCCCNc1c([N+](=O)[O-])c(Cl)cc2c1no[n+]2[O-] [Compound 5a, 4-(butylamino)-6-chloro-5-nitrobenzofuroxan] | > 100 | n.s. | 22.7 ± 1.9 | 4.4 | > 100 | n.s. | 100 | 56.5 ± 4.5 | 1.8 | fungistatic activity (result in words) [3]: one of the most effective; growth inhibition ([4]; sixth day of incubation, 20 °C): did not cause any inhibition; inhibition at 1000 µM ([4]; fifth day of incubation, 20 °C): 10%
2 | O=[N+]([O-])c1c(Cl)cc2c(no[n+]2[O-])c1NC1CCCCC1 [Compound 5d, 6-chloro-4-(cyclohexylamino)-5-nitrobenzofuroxan] | > 100 | n.s. | 31.6 ± 2.5 | 2.1 | 79.1 ± 6.2 | n.s. | 67.1 ± 5.7 | 61 ± 5.2 | 1.1 | 
3 | COc1cccc2c1C(=O)c1c(O)c3c(c(O)c1C2=O)C[C@@](O)(C(=O)CO)C[C@@H]3O[C@H]1C[C@H](N)[C@H](O)[C@H](C)O1 [Doxorubicin, reference compound] | 3.3 ± 0.1 | 1.0 | 6.8 ± 0.5 | n.s. | 3 ± 0.2 | 1.0 | 3 ± 0.2 | 3 ± 0.1 | 1.0 | 
4 | CN(Cc1ccccc1)c1c([N+](=O)[O-])c(Cl)cc2c1no[n+]2[O-] [Compound 5f, 4-(benzyl(methyl)amino)-6-chloro-5-nitrobenzofuroxan] | > 100 | n.s. | > 100 | n.s. | > 100 | n.s. | > 100 | 62.2 ± 5.6 | >1.6 | inhibition at 1000 µM ([3]; fifth day of incubation): < 20%; inhibition at 1000 µM ([3]; sixth day of incubation): < 10%; inhibition at 1000 µM ([4]; fifth day of incubation, 20 °C): < 20%; inhibition at 1000 µM ([4]; sixth day of incubation, 20 °C): < 10%
5 | O=[N+]([O-])c1c(Cl)cc2c(no[n+]2[O-])c1NN1CCOCC1 [Compound 5e, 6-chloro-4-(morpholinoamino)-5-nitrobenzofuroxan] | > 100 | n.s. | 57.1 ± 4.3 | 1.1 | > 100 | n.s. | 65.2 ± 5.8 | 61.6 ± 5.2 | 1.1 | 
6 | COc1ccccc1Nc1c([N+](=O)[O-])c(Cl)cc2c1no[n+]2[O-] [Compound 3e, 6-chloro-4-((2-methoxyphenyl)amino)-5-nitrobenzofuroxan] | 50 ± 4.1 | 1.3 | 21.5 ± 1.8 | 3.0 | 79.5 ± 6.4 | n.s. | 62.7 ± 5.6 | 62.7 ± 5.4 | 1.0 | fungistatic activity (result in words) [3]: inefficient; fungistatic activity (result in words) [4]: one of the most pronounced inhibitory effects
7 | c1ccc2[nH]cnc2c1 [benzimidazole, reference compound] |  |  |  |  |  |  |  |  |  | growth inhibition ([3]; fifth day of incubation): null inhibitory effect
8 | N#Cc1ccc(Nc2c([N+](=O)[O-])c(Cl)cc3c2no[n+]3[O-])cc1 [Compound 3d, 6-chloro-4-((4-cyanophenyl)amino)-5-nitrobenzofuroxan] | 61.3 ± 5.1 | >1.6 | 14.7 ± 1.2 | >6.8 | 67.9 ± 5.7 | >1.5 | > 100 | 16.6 ± 1.4 | >6 | 
9 | O=[N+]([O-])c1c(Cl)cc2c(no[n+]2[O-])c1Nc1ccc(Br)cc1 [Compound 3c, 4-((4-bromophenyl)amino)-6-chloro-5-nitrobenzofuroxan] | 59.2 ± 4.6 | 1.0 | 20.4 ± 1.7 | 3 | 3.7 ± 0.2 | 16.6 | 61.3 ± 5.1 | 4.8 ± 0.4 | 12.8 | D—dead cells ([8]; 5 μM): 3.92%; Ea—early apoptotic cells ([8]; 5 μM): 6.67%; La—late apoptotic cells ([8]; 5 μM): 8.63%; L—living cells ([8]; 5 μM): 80.78%; D—dead cells ([8]; 10 μM): 6.16%; Ea—early apoptotic cells ([8]; 10 μM): 17.33%; La—late apoptotic cells ([8]; 10 μM): 15.69%; L—living cells ([8]; 10 μM): 60.82%; inhibition at 1000 µM ([3]; fifth day of incubation): > 40%; inhibition at 1000 µM ([3]; sixth day of incubation): > 25%; inhibition at 1000 µM ([4]; fifth day of incubation, 20 °C): > 40%; inhibition at 1000 µM ([4]; sixth day of incubation, 20 °C): > 25%; cells in G0/G1 phase (G1) ([9]; 5 μM): 62.9% and 62.91%; cells in G0/G1 phase (G1) ([9]; 10 μM): 70.1% and 70.06%
10 | O=[N+]([O-])c1c(Cl)cc2c(no[n+]2[O-])c1Nc1ccc(F)cc1 [Compound 3a, 6-chloro-4-((4-fluorophenyl)amino)-5-nitrobenzofuroxan] | > 100 | n.s | 28.3 ± 2.3 | 3.3 | > 100 | n.s. | 93.8 ± 8.3 | 45.9 ± 3.7 | 2.0 | 
11 | O=[N+]([O-])c1c(Cl)cc2c(no[n+]2[O-])c1Cl [4,6-dichloro-5-nitrobenzofuroxan, reference compound] |  |  |  |  |  |  |  |  |  | fungistatic activity (result in words) [3]: not effective; fungistatic activity (result in words) [4]: not effective
12 | CCCCCCNc1c([N+](=O)[O-])c(Cl)cc2c1no[n+]2[O-] [Compound 5b, 6-chloro-4-(hexylamino)-5-nitrobenzofuroxan] | 50 ± 3.9 | >2 | 65 ± 5.8 | >1.5 | > 100 | n.s. | > 100 | 60.8 ± 4.8 | >1.6 | 
13 | O=[N+]([O-])c1c(Cl)cc2c(no[n+]2[O-])c1Nc1ccc(Cl)cc1 [Compound 3b, 6-chloro-4-((4-chlorophenyl)amino)-5-nitrobenzofuroxan] | 82.7 ± 7.3 | n.s | 12.7 ± 1.1 | 5.0 | 69.2 ± 5.7 | n.s. | 62.7 ± 5.5 | 60.6 ± 4.7 | 1.0 | inhibition at 1000 µM ([3]; fifth day of incubation): > 40%; inhibition at 1000 µM ([3]; sixth day of incubation): > 25%; inhibition at 1000 µM ([4]; fifth day of incubation, 20 °C): > 40%; inhibition at 1000 µM ([4]; sixth day of incubation, 20 °C): > 25%
14 | COC(=O)Nc1nc2ccccc2[nH]1 [carbendazim, methyl-2-benzimidazole carbamate, reference compound] |  |  |  |  |  |  |  |  |  | growth inhibition ([3]; fifth day of incubation): null inhibitory effect; inhibition at 1000 µM ([4]; sixth day of incubation, 20 °C): 100%
